Reference: patent US9676714B2, “Sulfonylindole derivatives and method for preparing the same” (Daewoong Pharmaceutical Co., Ltd., priority 2013, dated 2017)
Where a name gives a salt, the structure may show the parent alone.

What follows are compounds tested against T1, proton pump (H+/K+-ATPase) (Sus scrofa, UniProt P19156) (assay: Measurement of inhibitory effects on proton pump (H+/K+-ATPase) activities). Settings: hog gastric vesicles, K+-specific H+/K+-ATPase activity, Tris-HCl buffer pH 7.4, 37° C. for 40 minutes, malachite green Pi readout.
T1 construct: Gastric vesicles were prepared from hog stomach via centrifugal separation; from tissue; host or cells: hog stomach (gastric vesicles, method of Rabon et al. 1988)
Format: biochemical
In short: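 Hog gastric vesicles in 60 mmol/l Tris-HCl pH 7.4 with 0.5% DMSO were treated with compounds at room temperature; reaction was started with 10 μl of 10 mmol/l ATP stock. Released Pi was read at 570 nm, K+-specific activity taken as the ±K+ difference. IC50 from 4-parameter logistic fit.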

T1 sequence (P19156 whole entry): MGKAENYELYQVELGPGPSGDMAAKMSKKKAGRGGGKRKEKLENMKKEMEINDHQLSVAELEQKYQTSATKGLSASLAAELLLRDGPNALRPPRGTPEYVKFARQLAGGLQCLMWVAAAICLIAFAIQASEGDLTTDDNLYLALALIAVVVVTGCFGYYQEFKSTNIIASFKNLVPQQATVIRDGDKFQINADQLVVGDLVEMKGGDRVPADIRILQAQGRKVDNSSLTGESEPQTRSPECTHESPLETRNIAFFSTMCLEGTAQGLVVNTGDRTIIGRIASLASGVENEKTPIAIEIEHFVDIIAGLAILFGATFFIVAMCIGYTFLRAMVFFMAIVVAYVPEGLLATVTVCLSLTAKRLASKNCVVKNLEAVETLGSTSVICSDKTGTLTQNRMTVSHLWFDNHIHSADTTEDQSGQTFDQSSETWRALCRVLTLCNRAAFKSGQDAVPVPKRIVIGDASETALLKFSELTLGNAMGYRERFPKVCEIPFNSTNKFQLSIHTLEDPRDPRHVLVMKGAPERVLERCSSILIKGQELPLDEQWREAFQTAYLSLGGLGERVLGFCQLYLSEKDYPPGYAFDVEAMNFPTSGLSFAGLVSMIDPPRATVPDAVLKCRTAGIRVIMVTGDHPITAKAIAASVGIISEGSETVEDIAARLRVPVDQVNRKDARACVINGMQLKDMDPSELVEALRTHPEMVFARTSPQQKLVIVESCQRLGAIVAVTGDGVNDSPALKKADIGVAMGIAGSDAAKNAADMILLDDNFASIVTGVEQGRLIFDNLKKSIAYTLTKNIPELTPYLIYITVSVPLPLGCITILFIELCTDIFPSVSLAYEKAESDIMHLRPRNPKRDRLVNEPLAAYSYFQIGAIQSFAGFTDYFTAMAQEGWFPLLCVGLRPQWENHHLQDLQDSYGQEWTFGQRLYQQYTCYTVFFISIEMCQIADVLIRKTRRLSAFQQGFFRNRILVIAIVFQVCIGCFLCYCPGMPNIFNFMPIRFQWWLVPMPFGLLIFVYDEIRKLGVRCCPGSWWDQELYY
T1 sequence (P18434 whole entry partner): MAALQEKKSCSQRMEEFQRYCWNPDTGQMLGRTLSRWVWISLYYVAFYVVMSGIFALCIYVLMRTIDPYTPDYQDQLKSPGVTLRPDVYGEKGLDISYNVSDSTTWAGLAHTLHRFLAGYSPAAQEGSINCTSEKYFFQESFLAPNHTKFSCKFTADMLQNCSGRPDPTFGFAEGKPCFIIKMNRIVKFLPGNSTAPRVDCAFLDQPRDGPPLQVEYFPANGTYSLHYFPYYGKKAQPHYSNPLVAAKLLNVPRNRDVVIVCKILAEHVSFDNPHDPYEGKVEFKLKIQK

IC50	SMILES
0.47 µM	CNCc1cn(S(=O)(=O)c2cccc(OC)c2)c2cc(Cc3ccc(C)cc3Cl)ccc12 [Example 303, 1-(6-(2-chloro-4-methylbenzyl)-1-((3-methoxyphenyl)sulfonyl)-1H-indol-3-yl)-N-methylmethanamine]
0.6 µM	CNCc1cn(S(=O)(=O)c2cccc(OC(F)F)c2)c2cc(Cc3ccc(C)cc3Cl)ccc12 [Example 304, 1-(6-(2-chloro-4-methylbenzyl)-1-((3-(difluoromethoxy)phenyl)sulfonyl)-1H-indol-3-yl)-N-methylmethanamine]
0.61 µM	CNCc1cn(S(=O)(=O)c2cccc(OC(F)(F)F)c2)c2cc(Cc3ccc(C)cc3Cl)ccc12 [Example 305, 1-(6-(2-chloro-4-methylbenzyl)-1-((3-(trifluoromethoxy)phenyl)sulfonyl)-1H-indol-3-yl)-N-methylmethanamine]
0.68 µM	CNCc1cn(S(=O)(=O)c2ccc(F)cc2)c2cc(Cc3ccc(C)cc3Cl)ccc12 [Example 306]
1.21 µM	CNCc1cn(S(=O)(=O)c2ccc(OC)cc2)c2cc(Cc3ccc(C)cc3Cl)ccc12 [Example 307, 1-(6-(2-chloro-4-methylbenzyl)-1-((4-methoxyphenyl)sulfonyl)-1H-indol-3-yl)-N-methylmethanamine]
1.34 µM	CNCc1cn(S(=O)(=O)c2ccc(OC(F)F)cc2)c2cc(Cc3ccc(C)cc3Cl)ccc12 [Example 308, 1-(6-(2-chloro-4-methylbenzyl)-1-((4-(difluoromethoxy)phenyl)sulfonyl)-1H-indol-3-yl)-N-methylmethanamine]
0.33 µM	CNCc1cn(S(=O)(=O)c2cccnc2)c2cc(Oc3ccccc3[N+](=O)[O-])ccc12 [Example 310, N-methyl-1-(6-(2-nitrophenoxy)-1-(pyridin-3-ylsulfonyl)-1H-indol-3-yl)methanamine hydrochloride]
4.17 µM	CNCc1cn(S(=O)(=O)c2cccnc2)c2cc(Oc3ccc(C(F)(F)F)cc3Cl)ccc12 [Example 311, 1-(6-(2-chloro-4-(trifluoromethyl)phenoxy)-1-(pyridin-3-ylsulfonyl)-1H-indol-3-yl)-N-methylmethanamine hydrochloride]
0.66 µM	CNCc1cn(S(=O)(=O)c2cccnc2)c2cc(Oc3ncc(C(F)(F)F)cc3Cl)ccc12 [Example 312, 1-(6-((3-chloro-5-(trifluoromethyl)pyridin-2-yl)oxy)-1-(pyridin-3-ylsulfonyl)-1H-indol-3-yl)-N-methylmethanamine hydrochloride]
25 µM	CNCc1cn(S(=O)(=O)c2cccnc2)c2cc(Oc3ncc(F)cn3)ccc12 [Example 313, 1-(6-((5-fluoropyrimidin-2-yl)oxy)-1-(pyridin-3-ylsulfonyl)-1H-indol-3-yl)-N-methylmethanamine hydrochloride]
19.4 µM	CNCc1cn(S(=O)(=O)c2cccnc2)c2cc(Oc3cc(Cl)ncn3)ccc12 [Example 314, 1-(6-((6-chloropyrimidin-4-yl)oxy)-1-(pyridin-3-ylsulfonyl)-1H-indol-3-yl)-N-methylmethanamine hydrochloride]
1.92 µM	CCNCc1cn(S(=O)(=O)c2cccc(C(F)(F)F)c2)c2cc(Nc3ccc(OC)nc3Cl)ccc12 [Example 317, N-(2-chloro-6-methoxypyridin-3-yl)-3-((ethylamino)methyl)-1-((3-(trifluoromethyl)phenyl)sulfonyl)-1H-indol-6-amine]
4.25 µM	COc1ccc(Nc2ccc3c(CN4CCCC4)cn(S(=O)(=O)c4cccc(C(F)(F)F)c4)c3c2)c(Cl)n1 [Example 318, N-(2-chloro-6-methoxypyridin-3-yl)-3-(pyrrolidin-1-ylmethyl)-1-((3-(trifluoromethyl)phenyl)sulfonyl)-1H-indol-6-amine]
1.24 µM	COc1ccc(Nc2ccc3c(CN(C)C)cn(S(=O)(=O)c4cccc(C(F)(F)F)c4)c3c2)c(Cl)n1 [Example 319, N-(2-chloro-6-methoxypyridin-3-yl)-3-((dimethylamino)methyl)-1-((3-(trifluoromethyl)phenyl)sulfonyl)-1H-indol-6-amine]
20 µM	CNC(=O)c1cn(S(=O)(=O)c2cccc(C(F)(F)F)c2)c2cc(Nc3ccc(OC)nc3Cl)ccc12 [Example 320, 6-((2-chloro-6-methoxypyridin-3-yl)amino)-N-methyl-1-((3-(trifluoromethyl)phenyl)sulfonyl)-1H-indol-3-carboxamide]
3.35 µM	COc1ccc(Nc2ccc3c(C(=O)N(C)C)cn(S(=O)(=O)c4cccc(C(F)(F)F)c4)c3c2)c(Cl)n1 [Example 321, 6-((2-chloro-6-methoxypyridin-3-yl)amino)-N,N-dimethyl-1-((3-(trifluoromethyl)phenyl)sulfonyl)-1H-indol-3-carboxamide]
24 µM	Cc1ccc(Nc2ccc3c(C(=O)N(C)C)cn(S(=O)(=O)c4cccnc4)c3c2)c(F)c1 [Example 322, 6-((2-fluoro-4-methylphenyl)amino)-N,N-dimethyl-1-(pyridin-3-ylsulfonyl)-1H-indol-3-carboxamide]

IC50	SMILES
20 µM	Cc1ccc(Nc2ccc3c(C(=O)N(C)C)cn(S(=O)(=O)c4cccnc4)c3c2)c(Cl)c1 [Example 323, 6-((2-chloro-4-methylphenyl)amino)-N,N-dimethyl-1-(pyridin-3-ylsulfonyl)-1H-indol-3-carboxamide]
20 µM	COc1ccc(Nc2ccc3c(C(=O)N(C)C)cn(S(=O)(=O)c4cccnc4)c3c2)c(F)c1 [Example 324, 6-((2-fluoro-4-methoxyphenyl)amino)-N,N-dimethyl-1-(pyridin-3-ylsulfonyl)-1H-indol-3-carboxamide]
68 µM	CN(C)C(=O)c1cn(S(=O)(=O)c2cccnc2)c2cc(Nc3ccc(C(F)(F)F)cc3Cl)ccc12 [Example 325, 6-((2-chloro-4-(trifluoromethyl)phenyl)amino)-N,N-dimethyl-1-(pyridin-3-ylsulfonyl)-1H-indol-3-carboxamide]
37 µM	Cc1cc(OC(F)(F)F)ccc1Nc1ccc2c(C(=O)N(C)C)cn(S(=O)(=O)c3cccnc3)c2c1 [Example 326, N,N-dimethyl-6-((2-methyl-4-(trifluoromethoxy)phenyl)amino)-1-(pyridin-3-ylsulfonyl)-1H-indol-3-carboxamide]
40 µM	CN(C)C(=O)c1cn(S(=O)(=O)c2cccnc2)c2cc(Nc3ccc(OC(F)(F)F)cc3Cl)ccc12 [Example 327, 6-((2-chloro-4-(trifluoromethoxy)phenyl)amino)-N,N-dimethyl-1-(pyridin-3-ylsulfonyl)-1H-indol-3-carboxamide]
5 µM	COc1cc(OC(F)(F)F)ccc1Nc1ccc2c(C(=O)N(C)C)cn(S(=O)(=O)c3cccnc3)c2c1 [Example 328, 6-((2-methoxy-4-(trifluoromethoxy)phenyl)amino)-N,N-dimethyl-1-(pyridin-3-ylsulfonyl)-1H-indol-3-carboxamide]
42 µM	Cc1ccc(Nc2ccc3c(C(=O)N(C)C)cn(S(=O)(=O)c4cccnc4)c3c2)c(F)c1F [Example 329, 6-((2,3-difluoro-4-methylphenyl)amino)-N,N-dimethyl-1-(pyridin-3-ylsulfonyl)-1H-indol-3-carboxamide]
22 µM	Cc1ccc(Nc2ccc3c(C(=O)N(C)C)cn(S(=O)(=O)c4cccnc4)c3c2)c(Cl)n1 [Example 330, 6-((2-chloro-6-methylpyridin-3-yl)amino)-N,N-dimethyl-1-(pyridin-3-ylsulfonyl)-1H-indol-3-carboxamide]
70 µM	CN(C)C(=O)c1cn(S(=O)(=O)c2cccnc2)c2cc(Nc3ccc(Cl)nc3Cl)ccc12 [Example 331, 6-((2,6-dichloropyridin-3-yl)amino)-N,N-dimethyl-1-(pyridin-3-ylsulfonyl)-1H-indol-3-carboxamide]
60 µM	COc1ccc(Nc2ccc3c(C(=O)N(C)C)cn(S(=O)(=O)c4cccnc4)c3c2)c(Cl)n1 [Example 332, 6-((2-chloro-6-methoxypyridin-3-yl)amino)-N,N-dimethyl-1-(pyridin-3-ylsulfonyl)-1H-indol-3-carboxamide]
5.84 µM	CNc1cn(S(=O)(=O)c2cccnc2)c2cc(Nc3ccc(C)cc3F)ccc12 [Example 333, N6-(2-fluoro-4-methylphenyl)-N3-methyl-1-(pyridin-3ylsulfonyl)-1H-indol-3,6-diamine hydrochloride]
1.34 µM	COC(=O)c1cn(S(=O)(=O)c2cccnc2)c2cc(-c3ccc(OC)cc3)ccc12 [Example 335, methyl 6-(4-methoxyphenyl)-1-(pyridin-3-ylsulfonyl)-1H-indol-3-carboxylate]
2.7 µM	COC(=O)c1cn(S(=O)(=O)c2cccnc2)c2cc(-c3ccc(F)nc3)ccc12 [Example 336, methyl 6-(6-fluoropyridin-3-yl)-1-(pyridin-3-ylsulfonyl)-1H-indol-3-carboxylate]
3.15 µM	COC(=O)c1cn(S(=O)(=O)c2ccc(Cl)nc2)c2cc(-c3ccc(F)nc3)ccc12 [Example 337, methyl 1-((6-chloropyridin-3-yl)sulfonyl)-6-(6-fluoropyridin-3-yl)-1H-indol-3-carboxylate]
3.5 µM	COC(=O)c1cn(S(=O)(=O)c2cccnc2)c2cc(-c3ccc(OC)nc3)ccc12 [Example 338, methyl 6-(6-methoxypyridin-3-yl)-1-(pyridin-3-ylsulfonyl)-1H-indol-3-carboxylate]
0.37 µM	CNCc1cn(S(=O)(=O)c2cccc(F)c2)c2cc(Nc3ccc(C)cc3F)cnc12 [Example 339, N-(2-fluoro-4-methylphenyl)-1-((3-fluorophenyl)sulfonyl)-3-((methylamino)methyl)-1H-pyrrolo[3,2-b]pyridin-6-amine hydrochloride]
0.57 µM	CNCc1cn(S(=O)(=O)c2cccc(F)c2)c2cc(Nc3ccc(C)cc3OC(F)(F)F)cnc12 [Example 340, 1-((3-fluorophenyl)sulfonyl)-N-(4-methyl-2-(trifluoromethoxy)phenyl)-3-((methylamino)methyl)-1H-pyrrolo[3,2-b]pyridin-6-amine hydrochloride]
